From patent publication US9000037B2, “Precursors of glutamate derivatives” (Piramal Imaging SA, priority 2011, dated 2015)

Legend:
tumor = details: cited from earlier work
[1] = 19F-fluorination of precursors, reaction rates; format: physicochemical; details: for krel (relative reaction rate): 19F-fluorination, slowest reaction (If) defined as 1; for reaction rate of 19F-fluorination, in words: comparison among precursors
Protocol: Precursor (0.01 mmol) was dissolved in acetonitrile (0.5 mL), and 1.0 M TBAF/acetonitrile solution (20 μL, 0.02 mmol) was added. The reaction mixture was stirred at 80° C. for 2 h. 40 μL of solution was taken at 5, 10, 20, 40, 60, 90, and 120 min for HPLC analysis (method A4).
^19F-Fluorination was performed as described in “General procedures”. The progress of the reaction was examined after 5, 10, 20, 40, 60, 90, and 120 min. Plotting the percentage of the conversation versus the time, the reaction rates were calculated.

[2] = Stability of example compounds in solid form (HPLC); format: physicochemical; details: for Solid (%) Start: purity by HPLC before the study; for Solid (%) 1 week 0° C. / Solid (%) 1 week −20° C. / Solid (%) 2 week 0° C. / Solid (%) 2 week −20° C. / Solid (%) 3 week 0° C. / Solid (%) 3 week −20° C. / Solid (%) 4 week 0° C. / Solid (%) 4 week −20° C.: amber vial under Ar; for Solid (%) 2 week 0° C. / Solid (%) 2 week −20° C.: 2 weeks; for Solid (%) 3 week 0° C. / Solid (%) 3 week −20° C.: 3 weeks; for Solid (%) 4 week 0° C. / Solid (%) 4 week −20° C.: 4 weeks
Protocol: Method A1 (analytics of di-tert-butyl (4S)-4-(3-hydroxypropyl)-N-trityl-L-glutamate • Column: ChiralPak IA, 4.6×250 mm • Mobile phase: 5% IPA/n-heptane • Flow rate: 1 mL/min • Wavelength: 214/254 nm Method A2 (for Id) • Column: X-Bridge • Mobile phase: Acetonitrile/water 20:80 to 100% water • Flow rate: 1 mL/min • Wavelength: 214 nm Method A3 (for Ia to Ic and Ie to II) • Column: X-Bridge • Mobile phase: Acetonitrile/water […] to 100% water • Flow rate: 1 mL/min • Wavelength: 214 nm Method A4 (^19F-fluorination) • Column: Phenomenex Lux 5U Amylose-2 • Mobile phase: 10% IPA/Hex • Flow rate: 1 mL/min • Wavelength: 214 nm Method A5 (^18F-radiolabeling) • Column: Phenomenex Luna 5μ C18(2); 250*4.6 mm • Mobile phase: A: Na2HPO4 10 mM pH 7.4, B: acetonitrile • Gradient: 0 min 12% B, 15 min 12% B, 16 min 100% B, 18 min 100% B, 20 min 12% B, 23 min 12% B • Flow rate: 1.2 mL/min • Wavelength: 340 nm • Derivatization: […] of the product solution are mixed with […] OPA reagent (Thermo Scientific, No.:26015). After 1 min reaction at room temperature the solution is applied to the HPLC
The stability of the compounds of formula I were examined in solid form at two different temperatures: 0° C., and −20° C. The precursors were tested weekly for 4 weeks. Before the study, purities of the precursors were determined individually by HPLC analysis.
1. Solid state: 3-5 mg of the respective precursor Ia to Ij were put into 8 amber vials, which were flushed with Ar gas and capped. Each four vials containing precursor were stored at 0° C., and −20° C. Every week for 4 weeks, 1 mg of precursor was dissolved in acetonitrile (1.0 mL). 10 μL of solution was injected into HPLC (method A2 or A3, respectively).

SMILES | results in first clinical studies (tumor; compared with [18F]-4-fluoro-glutamic acid) | detection of lung cancer (tumor; first clinical studies) | krel (relative reaction rate) [1] | reaction rate of 19F-fluorination, in words [1] | Solid (%) Start [2] | Solid (%) 1 week 0° C. [2] | Solid (%) 1 week −20° C. [2] | Solid (%) 2 week 0° C. [2] | Solid (%) 2 week −20° C. [2] | Solid (%) 3 week 0° C. [2] | Solid (%) 3 week −20° C. [2] | Solid (%) 4 week 0° C. [2] | Solid (%) 4 week −20° C. [2] | tumor uptake (tumor; first clinical studies) | defluorination (tumor; in vivo)
N[C@@H](C[C@H](CCC[18F])C(=O)O)C(=O)O [(S)-4-(3-[^18F]Fluoropropyl)-L-glutamic acid] | Superior results | Very good results | – | – | – | – | – | – | – | – | – | – | – | – | –
CC(C)(C)OC(=O)[C@@H](CCCOS(=O)(=O)c1ccc([N+](=O)[O-])cc1)C[C@H](NC(c1ccccc1)(c1ccccc1)c1ccccc1)C(=O)OC(C)(C)C [Ia, Di-tert-butyl (4S)-4-(3-{[(4-nitrophenyl)sulfonyl]oxy}propyl)-N-trityl-L-glutamate] | – | – | 6.93 | Fastest conversion | 99.4% | 99.5% | 99.4% | 99.3% | 99.2% | 99.1% | 99.0% | 98.7% | 98.4% | – | –
CC(C)(C)OC(=O)[C@@H](CCCOS(=O)(=O)c1cccc([N+](=O)[O-])c1)C[C@H](NC(c1ccccc1)(c1ccccc1)c1ccccc1)C(=O)OC(C)(C)C [Ib, Di-tert-butyl (4S)-4-(3-{[(3-nitrophenyl)sulfonyl]oxy}propyl)-N-trityl-L-glutamate] | – | – | 9.86 | Fastest conversion | 96.7% | 96.5% | 96.6% | 94.6% | 94.8% | 95.0% | 93.7% | 91.3% | 94.3% | – | –
CC(C)(C)OC(=O)[C@@H](CCCOS(=O)(=O)c1ccc(-c2ccccc2)cc1)C[C@H](NC(c1ccccc1)(c1ccccc1)c1ccccc1)C(=O)OC(C)(C)C [Ic, Di-tert-butyl (4S)-4-{3-[(biphenyl-4-ylsulfonyl)oxy]propyl}-N-trityl-L-glutamate] | – | – | 2.93 | – | 98.8% | 98.6% | 98.6% | 98.6% | 98.7% | 98.6% | 96.9% | 98.4% | 98.0% | – | –
CC(C)(C)OC(=O)[C@@H](CCCOS(=O)(=O)c1ccc2ccccc2c1)C[C@H](NC(c1ccccc1)(c1ccccc1)c1ccccc1)C(=O)OC(C)(C)C [Id, Di-tert-butyl (4S)-4-{3-[(2-naphthylsulfonyl)oxy]propyl}-N-trityl-L-glutamate] | – | – | 2.38 | – | 99.8% | 99.8% | 99.8% | – | – | 99.8% | 99.8% | 99.8% | 99.8% | – | –
CC(C)(C)OC(=O)[C@@H](CCCOS(=O)(=O)c1cccc2ccccc12)C[C@H](NC(c1ccccc1)(c1ccccc1)c1ccccc1)C(=O)OC(C)(C)C [Ie, Di-tert-butyl (4S)-4-{3-[(1-naphthylsulfonyl)oxy]propyl}-N-trityl-L-glutamate] | – | – | 2.45 | – | 99.1% | 99.0% | 98.9% | 99.0% | 99.0% | 99.0% | 98.6% | 98.6% | 97.9% | – | –
CC(C)(C)OC(=O)[C@@H](CCCOS(=O)(=O)c1cccc2cccnc12)C[C@H](NC(c1ccccc1)(c1ccccc1)c1ccccc1)C(=O)OC(C)(C)C [If, Di-tert-butyl (4S)-4-{3-[(quinolin-8-ylsulfonyl)oxy]propyl}-N-trityl-L-glutamate] | – | – | 1.0 | slowest reaction | 90.5% | 89.5% | 89.6% | 89.0% | 88.5% | 89.0% | 88.3% | 89.0% | 87.0% | – | –
CC(C)(C)OC(=O)[C@@H](CCCOS(=O)(=O)c1ccc(-c2ccc(S(=O)(=O)OCCC[C@@H](C[C@H](NC(c3ccccc3)(c3ccccc3)c3ccccc3)C(=O)OC(C)(C)C)C(=O)OC(C)(C)C)cc2)cc1)C[C@H](NC(c1ccccc1)(c1ccccc1)c1ccccc1)C(=O)OC(C)(C)C [Ig, Tetra-tert-butyl (2S,4S,2′S,4′S)-2,2′-[biphenyl-4,4′-diylbis(sulfonyloxypropane-3,1-diyl)]bis[4-(tritylamino)pentanedioate]] | – | – | 11.8 | Fastest conversion | 97.9% | 97.9% | 98.0% | 98.0% | 98.1% | 97.9% | 97.9% | 97.8% | 97.5% | – | –
CC(C)(C)OC(=O)[C@@H](CCCOS(=O)(=O)c1ccc([N+](=O)[O-])c(C(F)(F)F)c1)C[C@H](NC(c1ccccc1)(c1ccccc1)c1ccccc1)C(=O)OC(C)(C)C [Ih, Di-tert-butyl (4S)-4-[3-({[4-nitro-3-(trifluoromethyl)phenyl]sulfonyl}oxy)propyl]-N-trityl-L-glutamate] | – | – | – | – | 97.6% | 94.4% | 94.6% | 95.0% | 94.8% | 93.1% | 93.1% | 93.4% | 92.8% | – | –
CC(C)(C)OC(=O)[C@@H](CCCOS(=O)(=O)c1c(Cl)cc(Cl)cc1Cl)C[C@H](NC(c1ccccc1)(c1ccccc1)c1ccccc1)C(=O)OC(C)(C)C [Ii, Di-tert-butyl (4S)-4-(3-{[(2,4,6-trichlorophenyl)sulfonyl]oxy}propyl)-N-trityl-L-glutamate] | – | – | 1.88 | – | 97.2% | 89.5% | 89.6% | 97.0% | 97.0% | 96.7% | 95.6% | 95.9% | 93.2% | – | –
N[C@@H](CC([18F])C(=O)O)C(=O)O (some centres unmarked) [[^18F]-4-fluoro-glutamic acid] | – | – | – | – | – | – | – | – | – | – | – | – | – | good tumor uptake | some defluorination was detected
